Key:
[1] = system: BV-2; experiment: Antineuroinflammatory activity against mouse BV2 cells assessed as inhibition of LPS-induced NO production incubated for 20 hrs by Griess assay; format: functional, cell-based; conditions: BV-2, 20 h
[2] = system: BV-2; experiment: Cytotoxicity against mouse BV2 cells assessed as reduction in cell viability at 1 to 25 uM after 24 hrs by MTT assay; format: cell-based; conditions: bv-2, 24 h, dose 1-25 µM

| IC50 [1] [µM] | SMILES | Activity [2] |
| --- | --- | --- |
| > 50 | COc1ccc(CCNC(=O)c2cc(OC)ccc2O)cc1 | – |
| > 50 | COc1cc2c3c(c1OC)-c1ccccc1[C@H](O)[C@H]3N(C(C)=O)CC2 | – |
| 9 | CC(=O)N1CCc2cc3c(c4c2[C@H]1[C@@H](O)c1ccccc1-4)OCO3 | Non-Toxic |
| 26 | COc1ccc(O)c(C(=O)NCCc2ccc(O)c(OC)c2)c1 | Non-Toxic |
| 21 | O=C(NCCc1ccc(O)cc1)c1ccc(O)c(O)c1 | Non-Toxic |
| > 50 | COc1cc(/C=C\C(=O)NCCc2ccc(O)cc2)cc(OC)c1O | – |
| 1.4 | COc1ccc(CCNC(=O)c2c(O)ccc(O)c2OC)cc1 | Non-Toxic |
| > 50 | NC(=O)c1cn(CCc2ccc(O)cc2)c(=O)c2c(O)ccc(O)c12 | – |
| 12 | COc1c(OC)c(OC)c2c3c(cc4ccccc42)NC(=O)c13 | Non-Toxic |
| > 50 | COc1ccc(O)c(C(=O)NCCc2ccc(O)cc2)c1 | – |
| > 50 | COc1c(O)c(OC)c2c3c1CCN(C(C)=O)[C@@H]3[C@@H](O)c1ccccc1-2 | – |
| 18 | COc1cc(/C=C/C(=O)NCCc2ccc(O)cc2)ccc1O [N-TRANS-FERULOYL TYRAMINE] | Non-Toxic |
| 6.8 | O=CN1CCc2cc3c(c4c2[C@H]1[C@@H](O)c1ccccc1-4)OCO3 | Non-Toxic |
| 45 | CCCCC/C=C/C=C/C(=O)NCC(C)C [PELLITORIN] | Non-Toxic |
| 37 | COc1cc2c3c(cc4ccccc4c3c1OC)NC(=O)C2=O [NORCEPHARADIONE] | Non-Toxic |
| 16 | COc1c2c3c(c4c1OCO4)-c1ccccc1[C@H](O)[C@H]3N(C(C)=O)CC2 | Non-Toxic |
| 15 | CN(C)c1ccc(O)c2c1C[C@H]1C[C@H]3[C@H](N(C)C)C(O)=C(C(N)=O)C(=O)[C@@]3(O)C(O)=C1C2=O [MINOCYCLINE] | – |
| 7 | COc1ccc(CCNC(=O)c2cc(O)ccc2O)cc1 | Non-Toxic |
| > 50 | COc1cc([C@H]2c3c(cc(OC)c(O)c3OC)C=C(C(=O)NCCc3ccc(O)cc3)[C@@H]2C(=O)NCCc2ccc(O)cc2)cc(OC)c1O | – |
| > 50 | COc1cc(/C=C/C(=O)NCCc2ccc(O)c(OC)c2)ccc1O | – |
| > 50 | COc1cc(/C=C/C(=O)NCCc2ccc(O)cc2)cc(OC)c1O [TRANS-N-SINAPOYLTYRAMINE] | – |
| > 50 | COc1ccc(OC)c(C(=O)NCCc2ccc(O)c(OC)c2)c1 | – |
| > 50 | COc1cccc(/C=C/C(=O)N2CCCC2)c1 | – |
| > 50 | COc1c(O)cc2c3c1-c1ccccc1[C@H](O)[C@H]3N(C(C)=O)CC2 | – |
| > 50 | COc1c2c3c(c(OC)c1OC)-c1ccccc1[C@H](O)[C@H]3N(C(C)=O)CC2 | – |
| 2.2 | O=C(/C=C/c1ccc(O)cc1)NCCc1ccc(O)cc1 [N-P-COUMAROYL TYRAMINE] | Non-Toxic |
| 22 | COc1cc(/C=C\C(=O)NCCc2ccc(O)cc2)ccc1O | Non-Toxic |

| SMILES | IC50 [1] [µM] | Activity [2] |
| --- | --- | --- |
| COc1cc2c3c(cc4ccccc4c3c1OC)NC2=O [CEPHARANONE B] | > 50 | – |
| COc1cc2c3c(cc4ccccc4c3c1O)NC2=O [PIPEROLACTAM A] | > 50 | – |
| O=C1c2ccccc2-c2c3c(cc4ccnc1c24)OCO3 [LIRIODENINE] | 5 | Non-Toxic |

From ChEMBL document CHEMBL4834422, “New Tyramine- and Aporphine-Type Alkamides with NO Release Inhibitory Activities from Piper puberulum” (J Nat Prod, 2021)
